Test results taken from patent US20010041708A1, “Compositions for preventing cellulite in mammalian skin” (Zen-Bio, Inc., priority 2000, published 2001).

How the values were obtained:
[1] = system: stromal vascular (SV) cells from human adipose tissue; test: De novo lipogenesis (14C-glucose incorporation into cellular lipid); type: cell-based; conditions: Exp. 5a
Experimental: Experiments 5a and 5b were designed to determine if the trans-10, cis-12 CLA-mediated reduction in TG content was due to decreased lipogenesis and/or increased lipolysis. In Experiment 5a (lipogenesis), SV cells were seeded at a density of 3×10^4/cm^2 and continuously treated with increasing concentrations (3, 10, or 30 uM) of either linoleic acid, cis-9, tran-11 CLA, or trans-10, cis-12 CLA. A set of control cultures received vehicle (BSA) plus TZD. All cultures received differentiation media (days 1-3), adipocyte media (days 4-9), and low-glucose (˜5 mM) adipocyte media (days 10-12) prior to measuring de novo lipogenesis. On day 12, ^14C-labeled glucose incorporation into the lipid fraction of the cultures was measured for 2 h and, following lipid extraction, the radioactivity in the lipid fraction was determined by scintillation counting. Time course data (not shown) indicated a linear increase in radiolabeled glucose incorporation into lipid over 2 h.
Incorporation of ^14C-glucose into cellular lipid was determined on day 12 of differentiation in cultures chronically treated with fatty acids or vehicle. Following the addition of fatty acids and low glucose (˜5 mM) medium to the cultures on day 12, 1.0 μCi [U-^14C]-glucose ([U-^14C]-D-glucose; SA ˜250 mCi/mmol, ICN, Costa Mesa, Calif.)/mL medium was added to the cultures for 2 h. Our time course study (data not shown) indicated a linear increase in radiolabeled glucose incorporation into lipid over a 2 h period. After 2 h, media containing unincorporated ^14C-glucose was immediately removed and the cultures were washed with 1 mL HBSS to remove unincorporated ^14C-glucose. An additional 1 mL of HBSS was added and, after vigorous tritaration, cells were transferred to glass vials. Five milliliters of a chloroform:methanol (2:1) solution was added to each vial and they were vortexed for 1 min. All samples were then centrifuged for 5 min at 1000×g to further separate the hydrophobic and hydrophilic phases. The lower hydrophobic phase was removed from the tubes and dried under nitrogen at 40° C. Five milliliters of scintillation cocktail (Scinti Verse, Fisher Scientific, Norcross, Ga.) was added to each sample, and the ^14C content was determined by liquid scintillation counting on a Beckman LS 6000 Scintillation Counter (Beckman Instruments, Palo Atlo, Calif.). […] The radioactivity in the lipid fraction from these cultures was subtracted from the total counts. Cell numbers were determined from parallel treatment groups in separate culture dishes at the time of radioisotope addition to the medium. Therefore, mean ^14C-glucose incorporation is expressed as cpm/10^6 cells.

3T3-L1 preadipocytes [2] = test: Fatty acid composition of neutral and phospholipid fractions of treated cultures; type: cell-based, murine
aP2 = aP2 protein expression in 3T3-L1 preadipocytes; type: cell-based, murine
3T3-L1 preadipocytes [3] = test: TG content of 3T3-L1 preadipocytes; type: cell-based, murine
[4] = system: 3T3-L1 adipocyte cell line; test: Lipolysis of triglycerides (glycerol release) in 3T3-L1 adipocyte cell line; type: cell-based, rodent
[5] = system: stromal vascular (SV) cells from human adipose tissue; test: Triglyceride (TG) content of differentiating primary cultures of SV cells; type: cell-based; conditions: day 11
Experimental: Abdominal adipose tissue (Exp. 1-5) and thigh adipose tissue (Exp. 5b) were obtained from middle-aged females with body mass indexes <30.0 during liposuction or elective surgery. Subsequently, tissue was minced and enzymatically digested for 45 min in a Krebs-Ringer buffer containing 1 mg/mL collagenase (CLS-1, Worthington Biochemical Corp, Lakewood, N.J.), 15 mg/mL bovine serum albumin (BSA), 5 mM glucose and 100 mM HEPES (pH 7.4). Digestion was carried out at a 5 mL/1 g ratio (digestion solution: tissue mass). The digesta was then filtered through 200- and 60-micron mesh and pelleted at 600×g for 5 min. The SV cells were resuspended in a RBC lysis buffer for 10 min and then filtered and recentrifuged to remove contaminating […]. Cultures of SV cells were grown in proliferation medium containing 90% DME/Ham's F-10 (1:1, v/v), 10% (v/v) fetal bovine serum (FBS), 15 mM HEPES (pH 7.4), 60 U/mL penicillin, 60 U/mL streptomycin, and 25 ug/mL fungizone. Cultures were incubated at 37° C. in a humidified […]:CO2 (90:10%) atmosphere. SV cells were grown to 80% confluency and then cryopreserved in liquid nitrogen in aliquots (2×10^6 cells/mL).
Cryopreserved aliquots were subsequently thawed, seeded in T-150 flasks (e.g., 1 vial per 2 T-150 flasks), and grown in proliferation media until 80% confluent. At this time the cells were removed via trypsinization, seeded (3×10^4/cm^2, except for Exp. 1) in 24-well or 96-well (Exp. 5b) Falcon dishes, and allowed to attach for 24 h in proliferation medium. Following attachment, cultures were grown in differentiation medium for the next 3 d which contained DME/Ham's F-10 (1:1,v/v), 15 mM HEPES (pH 7.4), 33 uM biotin, 17 uM pantothenate, 100 nM human insulin, 1 uM dexamethasone (DEX), 60 U/mL penicillin, 60 U/mL streptomycin, 25 ug/mL fungizone, 0.25 mM isobutylmethylxanthine (IBMX), and TZD (Exp. 1 & 2=BRL 49653; Exp. 3-5=Zen Bio's proprietary reagent). Thereafter, cultures were exposed to adipocyte medium consisting of 90% DME/Ham's F-10 (1:1,v/v), 15 mM HEPES (pH 7.4), 3% FBS (v/v), 33 uM biotin, 17 uM pantothenate, 100 nM human insulin, 1 uM DEX, 60 U/mL penicillin, 60 U/mL streptomycin, and 25 ug/mL fungizone. Adipocyte media was replaced every 3 d. […] After 18 day in culture, the majority of the cells contained visual lipid droplets.
Experiment 1 was designed to determine optimal culturing conditions during differentiation of primary cultures of SV cells isolated from human adipose tissue. Specifically, the experiment was designed to determine how seeding density and thiazolidinedione (TZD; PPARγ-agonist BRL 49653) concentration influenced TG content (ug/10^6cells). SV cells were seeded at increasing densities (2-, 3-, or 4×10^4/cm^2) in differentiation media containing 0, 1, or 10 uM TZD (BRL 49653) in this 3×3 factorial design. All cultures received the same adipocyte media after 3 d of differentiation. The cultures were harvested on day 11-12 of differentiation and TG content and cell number were measured. Another set of cultures was stained with Oil Red O and counterstained with Mayer's hematoxylin to assess cellular differentiation potential (n=3 per treatment combination).
In Experiment 2 the impact of linoleic acid and the trans-10, cis-12 isomer of CLA on TG accumulation in these cells was examined. SV cells were seeded at a density of 3×10^4/cm^2 and continuously treated with either 10 uM linoleic acid, 100 uM linoleic acid, 10 uM trans-10, cis-12 CLA, or 100 uM trans-10, cis-12 CLA, and grown under our normal differentiation protocol. One set of control cultures contained only vehicle (BSA) and another contained vehicle plus TZD (BRL 49653). TG content and cell number were measured on day 11 of differentiation.
The objective of Experiment 3 was to evaluate the dose response of trans-10, cis-12 CLA, cis-9, trans-11 CLA, and linoleic acid on TG content of the cultures. […]

PPARγ2 = PPARγ2 protein expression in 3T3-L1 preadipocytes; type: cell-based, murine

CCCCC/C=C\C=C\CCCCCCCCC(=O)O [trans-10, cis-12 CLA, 10-trans, 12-cis conjugated linoleic acid]
Less 14C-glucose incorporated into cellular lipid compared to TZD treated vehicle controls ([1]; 30 uM, day 12, 2 h): 80%
Incorporation of 14C-glucose into cellular lipid per 10^6 cells, dose response ([1]; 3, 10, 30 uM, day 12): decreased
Amount of cis-9 oleic acid (3T3-L1 preadipocytes [2]): increased
Level of linoleic acid (18:2) (3T3-L1 preadipocytes [2]): increased
Amount of cis-11 oleic acid (18:1) compared to BSA controls (3T3-L1 preadipocytes [2]; 50 uM, neutral and polar lipid fractions): lower amounts
Amount of palmitoleic acid (16:1) compared to BSA controls (3T3-L1 preadipocytes [2]; 50 uM, neutral lipid fraction): lower amounts
Arachidonic acid (AA) in the phospholipid fraction (3T3-L1 preadipocytes [2]; increasing level in culture): dose-dependent increase
Incorporation into cellular lipid fractions (3T3-L1 preadipocytes [2]; neutral and phospholipid fractions): incorporated into the neutral and phospholipid fractions
aP2 protein expression (aP2; after 6 d of treatment): decreased
aP2 protein expression (aP2; day 2 or 4 of differentiation): did not affect aP2 protein expression
TG content, treatment during only the first 3 d of differentiation (3T3-L1 preadipocytes [3]): not sufficient to lower TG concentrations
Triglyceride content in 3T3-L1 adipocyte cells (3T3-L1 preadipocytes [3]; 3T3-L1 adipocyte cell line): decreasing triglyceride content
TG-lowering effect (3T3-L1 preadipocytes [3]; 3T3-L1 preadipocytes): responsible for the TG-lowering effects
TG content, treatment during entire period of differentiation (3T3-L1 preadipocytes [3]; vs treatment during last 3 d): reduced TG content to a greater extent than treatment during the last 3 d of differentiation
Glycerol release by the cells [4]: increased glycerol release
Less TG (ug/10^6 cells) than TZD-supplemented vehicle control cultures ([5]; Exp. 2, 10 uM, continuous treatment): 76%
TG content vs other treatments / TZD treated vehicle controls ([5]; Exp. 2, 100 uM, continuous treatment): not significantly different
TG content vs TZD treated vehicle controls ([5]; Exp. 3, 30 uM): not significantly different
TG content, dose response ([5]; Exp. 3, 1-10 uM): decreased
Less TG content compared to TZD treated vehicle controls ([5]; Exp. 4, 10 uM alone): approximately 60%
PPARγ2 protein expression (PPARγ2; after 6 d of treatment): decreased
PPARγ2 protein expression compared to BSA controls (PPARγ2; day 2 of differentiation): increased PPARγ2 expression
PPARγ2 protein expression (PPARγ2; day 4 of differentiation): no effect on PPARγ2 protein expression
